According to patent US6528251B2, “Method of managing the chemotherapy of patients who are HIV positive based on the phenotypic drug sensitivity of human HIV strains” (Virco N.V., priority 1996, dated 2003):
Read-outs that look alike come from different tables or passages of the source.

What was measured:
Format in all cases: cell-based, HIV-1
[1] = system: recombinant virus from patient viral RNA (Example 12); assay: Recombinant virus assay (MT4/MTT), patient of Example 12 (therapy history RT and protease inhibitors); settings: for ratio (1)/(2): Table 8, patient mean IC50 / recIIIB IC50, Example 12
Procedure: (§1) RNA was isolated from 100 μl of plasma according to the method described by Boom, R. et al. (1990, supra), and was reverse transcribed with the GeneAmp reverse transcriptase kit (Perkin Elmer) as described by the manufacturer and using an HIV-1 specific downstream primer (OUT3: 5′-CATTGCTCTCCAATTACTGTGATATTTCTCATC-3′; SEQ ID NO: 1). PCR on reverse transcribed RNA was performed with inner and outer primers as described by Kellam, P. and Larder, B. A. (1994, supra). After chloroform extraction and centrifugation on Centricon 100 columns or centrifugation on anion-exchange spin columns (Quiagen), the isolated PCR product was ready for use in the transfection reactions.
(§2) MT4 cells were subcultured at a density of 250,000 cells/ml before transfection (exponential growth phase). Cells were pelleted and resuspended in phosphate buffered saline (PBS) at a concentration of […]. A 0.8 ml portion (2.5 10E6 cells/ml) was used for each transfection. Transfection was performed with the Bio-Rad Gene pulser making use of 0.4 cm electrode cuvettes. Cells were electroporated in the presence of […] of linearised pHIVΔRT plasmid and approximately 5 μg of RT PCR product at 250SF and 300 V, followed by a 30-min incubation at room temperature. Subsequently, 10 ml of fresh culture medium was added to the cell suspension and incubation was performed at 37° C. in a humidified atmosphere of 5% CO2.
(§3) During 7 to 10 days following the transfection, cells were monitored for the appearance of cytopathogenic effect (CPE). In the absence thereof, cells were subcultured in different flasks. Subsequently, culture supernatants of transfected cells were used to create a stock of recombinant virus and stored in 1.5 ml aliquots at −70° C.
(§4) After titration of the new viruses, the stocks were used for antiviral experiments in the presence of serial dilutions of different HIV inhibitors. Titres of the harvested supematants were determined by limited serial dilution titration of virus in MT4 cells.
(§5) Viruses with a useful titre were used in antiviral experiments. For this purpose, 96-well microtitre plates were filled with 100μl of complete culture medium. Subsequently, stock solutions of compounds were added in 25 μl volumes to series of duplicate wells. HIV- and mock-infected cell samples were included for each drug (or drug combination). Exponentially growing MT4 cells were then transferred to the microtitre plates at a density of 150,000 cells/ml. The cell cultures were then incubated at 37° C. in a humidified atmosphere of 5% CO2. Five days after infection, the viability of the mock- and HIV-infected cells was examined spectrophotometrically by the M1T method (Pauwels, R. et al. J. Virol. Meth. (1988), 20: 309-321) as described in Section 6 below.
(§6) To each well of the microtiter plates, 20 μl of a solution of MTT (7.5 mg/ml in PBS) was added. The plates were further incubated at 37° C. for 1 h. Then, 150 μl of medium was removed without disturbing the MT4 cell clusters containing the formazan crystals. Solubilization of the formazan crystals was achieved by adding 100 μl 5% Triton X-100 in acidified isopropanol (5 ml concentrated HCl per liter solvent). Complete dissolution of the formazan crystals was obtained after the plates had been placed on a plate shaker for 10 min. Finally the absorbances were read at two wavelengths (540 and 690 nm). From these optical density (OD) data, 50% inhibitory (IC50) and 50% cytotoxic (CC50) concentrations were derived.
An HIV infected patient with a therapy history including RT and protease inhibitors donated plasma whose susceptibility to a number of RT inhibitors and protease inhibitors was determined according to the protocol set out in Example 1.

[2] = system: recombinant virus from patient viral RNA (Example 11); assay: Recombinant virus assay (MT4/MTT), patient of Example 11 (therapy history RT and protease inhibitors); settings: for ratio (1)/(2): Table 7, patient mean IC50 / recIIIB IC50, Example 11
Procedure: as §1, §2, §3, §4, §5, §6
An HIV infected patient with a therapy history including RT and protease inhibitors donated plasma whose susceptibility to a number of RT inhibitors and protease inhibitors was determined according to the protocol set out in Example 1. Recombinant wild type HIV strain recIIIb was used as a reference HIV virus.

[3] = system: recombinant virus from patient viral RNA (Example 10, drug-naive patient); assay: Recombinant virus assay (MT4/MTT), drug-naive patient of Example 10; settings: for IC50: Human immunodeficiency virus 1, Table 6, Example 10 patient virus; for ratio (1)/(2): Table 6, patient mean IC50 / recIIIB IC50, Example 10
Procedure: as §1, §2, §3, §4, §5, §6
A drug-naive HIV-infected patient donated plasma whose susceptibility to a number of RT inhibitors and protease inhibitors was determined according to the protocol set out in Example 1. Recombinant wild type HIV strain recIIIB was used as a reference HIV virus.

[4] = system: recombinant virus from plasma of HIV-infected individuals on NNRTI long-term monotherapy; assay: Phenotyping of patients on NNRTI long-term monotherapy (Example 13), fold resistance
Procedure: as §4, §5, §6
Plasma samples were obtained from HIV-infected individuals who had been receiving non-nucleoside RT inhibitor (NNRTI) long-term monotherapy. HIV-RNA was extracted, reverse-transcribed and amplified as described in Example 1. Starting from outer PCR material of positive samples, the first 785 nucleotides of the RT gene were amplified and this material was further used for genotyping.
Amino acids changes at these positions are shown for each patient in the following rows. […] The right part of Table 9 presents the fold resistance to different RT inhibitors as determined by the method according to the invention for each of the patients' samples. NNRTI 1 is the non-nucleoside RT inhibitor that was administered to the patients.

[5] = Human immunodeficiency virus 1, MT4, read-out: Anti-HIV-1 activity IC50 (μM) Exp. 1
[6] = Human immunodeficiency virus 1, MT4, read-out: Anti-HIV-1 activity IC50 (μM) Exp. 2
[7] = Human immunodeficiency virus 1, read-out: Anti-HIV-1 activity IC50 (μM) Mean (1)
[8] = MT4 cells, read-out: Anti-HIV-1 activity IC50 (μM) Exp. 1
[9] = MT4 cells, read-out: Anti-HIV-1 activity IC50 (μM) Exp. 2
[10] = mean, read-out: Anti-HIV-1 activity IC50 (μM) Mean (1)
[11] = Patient 4, no resistance associated mutation
[12] = Patient 5, no resistance associated mutation
[13] = Patient 11, RT mutations M41L, D67N, K70R, K103N, M184V, T215F, K219Q
[14] = Patient 12, RT mutations M41L, T215Y
[15] = Patient 13, RT mutations K101E, K103K/N, E138A, G190G/A
[16] = Patient 16, RT mutations K103N, M184V

Structure (SMILES)	ratio (1)/(2) [1]	ratio (1)/(2) [2]	IC50 [3, 8]	IC50 [3, 9]	IC50 [3, 10]	ratio (1)/(2) [3]	FOLD RESISTANCE TO ([4]; Patient 1, RT mutation K103N)	FOLD RESISTANCE TO ([4]; Patient 2, RT mutation K103S)	FOLD RESISTANCE TO ([4]; Patient 3, RT mutation K103N)	FOLD RESISTANCE TO [4, 11]	FOLD RESISTANCE TO [4, 12]	FOLD RESISTANCE TO ([4]; Patient 6, RT mutation K103N)	FOLD RESISTANCE TO ([4]; Patient 7, RT mutation K103S)	FOLD RESISTANCE TO ([4]; Patient 8, RT mutation K103N)	FOLD RESISTANCE TO ([4]; Patient 9, RT mutation Y181C)	FOLD RESISTANCE TO ([4]; Patient 10, RT mutation K103N)	FOLD RESISTANCE TO [4, 13]	FOLD RESISTANCE TO [4, 14]	FOLD RESISTANCE TO [4, 15]	FOLD RESISTANCE TO ([4]; Patient 14, RT mutation K103N)	also measured
Nc1ccn([C@@H]2CS[C@H](CO)O2)c(=O)n1 [3TC, lamivudine]	22	19	1.53 µM	1.72 µM	1.62 µM	0.4	1 fold	0.4 fold	1 fold	0.1 fold	0.4 fold	0.3 fold	0.04 fold	1 fold	1 fold	0.1 fold	>8 fold	2 fold	1 fold	1 fold	IC50 [1, 5]: > 100 µM; IC50 [1, 6]: > 100 µM; IC50 [1, 7]: > 100 µM; IC50 [2, 5]: > 100 µM; IC50 [2, 6]: 94 µM; IC50 [2, 7]: ≥ 97 µM; FOLD RESISTANCE TO ([4]; Patient 15, RT mutation K103N): 1 fold; FOLD RESISTANCE TO [4, 16]: >8 fold; FOLD RESISTANCE TO ([4]; Patient 17, RT mutation K103N): 1 fold; FOLD RESISTANCE TO ([4]; Patient 18, RT mutation K103S): 1 fold; FOLD RESISTANCE TO ([4]; Patient 19, RT mutation K103N): 1 fold; FOLD RESISTANCE TO ([4]; Patient 20, RT mutation A98G): 1 fold; FOLD RESISTANCE TO ([4]; Patient 21, RT mutation K103N): 0.4 fold; FOLD RESISTANCE TO ([4]; Patient 22, RT mutation V108I): 0.4 fold; FOLD RESISTANCE TO ([4]; Patient 23, RT mutation K103N): 0.2 fold; FOLD RESISTANCE TO ([4]; Patient 24, RT mutation K101Q): 1 fold
Cc1cn([C@H]2C[C@H](N=[N+]=[N-])[C@@H](CO)O2)c(=O)[nH]c1=O [AZT, zidovudine]	88	0.3	0.019 µM	0.019 µM	0.019 µM	0.5	1 fold	1 fold	0.4 fold	0.3 fold	1 fold	1 fold	1 fold	1 fold	2 fold	0.4 fold	94 fold	28 fold	1 fold	1 fold	susceptibility of the patient's HIV strain (in words) ([1]; Example 12 patient, conclusion from Table 8): decreased susceptibility; IC50 ([1]; Human immunodeficiency virus 1, Table 8, Example 12 patient virus, MT4 cells, read-out: Anti-HIV-1 activity IC50 (μM) Exp. 1): 3.83 µM; IC50 ([1]; Human immunodeficiency virus 1, Table 8, Example 12 patient virus, MT4 cells, read-out: Anti-HIV-1 activity IC50 (μM) Exp. 2): 3.35 µM; IC50 ([1]; Human immunodeficiency virus 1, Table 8, Example 12 patient virus, mean, read-out: Anti-HIV-1 activity IC50 (μM) Mean (1)): 3.59 µM; IC50 ([2]; Human immunodeficiency virus 1, Table 7, Example 11 patient virus, MT4 cells, read-out: Anti-HIV-1 activity IC50 (μM) Exp. 2): 0.015 µM; IC50 ([2]; Human immunodeficiency virus 1, Table 7, Example 11 patient virus, mean, read-out: Anti-HIV-1 activity IC50 (μM) Mean (1)): 0.015 µM; FOLD RESISTANCE TO ([4]; Patient 15, RT mutation K103N): 2 fold; FOLD RESISTANCE TO [4, 16]: 1 fold; FOLD RESISTANCE TO ([4]; Patient 17, RT mutation K103N): 1 fold; FOLD RESISTANCE TO ([4]; Patient 18, RT mutation K103S): 1 fold; FOLD RESISTANCE TO ([4]; Patient 19, RT mutation K103N): 1 fold; FOLD RESISTANCE TO ([4]; Patient 20, RT mutation A98G): 0.4 fold; FOLD RESISTANCE TO ([4]; Patient 21, RT mutation K103N): 1 fold; FOLD RESISTANCE TO ([4]; Patient 22, RT mutation V108I): 1 fold; FOLD RESISTANCE TO ([4]; Patient 23, RT mutation K103N): 0.2 fold; FOLD RESISTANCE TO ([4]; Patient 24, RT mutation K101Q): 1 fold
